Results taken from US9107446B2, “Solubilizates of preservatives and method for producing the same” (AQUANOVA AG, priority 2006, dated 2015).
Read-outs that look alike come from different tables or passages of the source.

Legend:
[1] = cited from earlier work
[2] = test system: Saccharomyces cerevisae; settings: pH 6.2, room temperature; for Bacteria Count: 0.4 ml yeast solution
[3] = test system: bacteria; settings: 500 mg added to nutrient solution with agar; about three weeks contact time
[4] = in water; cited from earlier work

SMILES: O=C(O)c1ccccc1 [Benzoic Acid]
- Anion, dis. ([1]; pH Value 3): 6%
- Anion, dis. ([1]; pH Value 3.5): 16.7%
- Anion, dis. ([1]; pH Value 4.0): 38.7%
- Anion, dis. ([1]; pH Value 5.0): 86.5%
- Bacteria Count ([2]; Benzoic Acid Concentration 10 ppm, After 3 days): 1,650,000/ml
- Bacteria Count ([2]; Benzoic Acid Concentration 10 ppm, After 7 days): 1,200,000/ml
- Bacteria Count ([2]; Benzoic Acid Concentration 10 ppm, After 15 days): 800,000/ml
- Bacteria Count ([2]; Benzoic Acid Concentration 10 ppm, After 22 days): 1,100,000/ml
- Bacteria Count ([2]; Benzoic Acid Concentration 10 ppm, After 29 days): 1,300,000/ml
- Bacteria Count ([2]; Benzoic Acid Concentration 10 ppm, Initial): 2,900/ml
- Bacteria Count ([2]; Benzoic Acid Concentration 50 ppm, After 3 days): 1,900,000/ml
- Bacteria Count ([2]; Benzoic Acid Concentration 50 ppm, After 7 days): 1,100,000/ml
- Bacteria Count ([2]; Benzoic Acid Concentration 50 ppm, After 15 days): 900,000/ml
- Bacteria Count ([2]; Benzoic Acid Concentration 50 ppm, After 22 days): 930,000/ml
- Bacteria Count ([2]; Benzoic Acid Concentration 50 ppm, After 29 days): 1,300,000/ml
- Bacteria Count ([2]; Benzoic Acid Concentration 50 ppm, Initial): 2,900/ml
- Bacteria Count ([2]; Benzoic Acid Concentration 100 ppm, After 3 days): 670,000/ml
- Bacteria Count ([2]; Benzoic Acid Concentration 100 ppm, After 7 days): 530,000/ml
- Bacteria Count ([2]; Benzoic Acid Concentration 100 ppm, After 15 days): 600,000/ml
- Bacteria Count ([2]; Benzoic Acid Concentration 100 ppm, After 22 days): 1,200,000/ml
- Bacteria Count ([2]; Benzoic Acid Concentration 100 ppm, After 29 days): 900,000/ml
- Bacteria Count ([2]; Benzoic Acid Concentration 100 ppm, Initial): 2,900/ml
- Bacteria Count ([2]; Benzoic Acid Concentration 200 ppm, After 3 days): 510,000/ml
- Bacteria Count ([2]; Benzoic Acid Concentration 200 ppm, After 7 days): 430,000/ml
- Bacteria Count ([2]; Benzoic Acid Concentration 200 ppm, After 15 days): 350,000/ml
- Bacteria Count ([2]; Benzoic Acid Concentration 200 ppm, After 22 days): 400,000/ml
- Bacteria Count ([2]; Benzoic Acid Concentration 200 ppm, After 29 days): 400,000/ml
- Bacteria Count ([2]; Benzoic Acid Concentration 200 ppm, Initial): 2,900/ml
- Bacteria Count ([2]; Benzoic Acid Concentration 300 ppm, After 3 days): 630,000/ml
- Bacteria Count ([2]; Benzoic Acid Concentration 300 ppm, After 7 days): 400,000/ml
- Bacteria Count ([2]; Benzoic Acid Concentration 300 ppm, After 15 days): 520,000/ml
- Bacteria Count ([2]; Benzoic Acid Concentration 300 ppm, After 22 days): 250,000/ml
- Bacteria Count ([2]; Benzoic Acid Concentration 300 ppm, After 29 days): 230,000/ml
- Bacteria Count ([2]; Benzoic Acid Concentration 300 ppm, Initial): 2,900/ml
- Bacteria Count ([2]; Benzoic Acid Concentration 500 ppm, After 3 days): 700 mL⁻¹
- Bacteria Count ([2]; Benzoic Acid Concentration 500 ppm, After 7 days): 55,000/ml
- Bacteria Count ([2]; Benzoic Acid Concentration 500 ppm, After 15 days): 230,000/ml
- Bacteria Count ([2]; Benzoic Acid Concentration 500 ppm, After 22 days): 120,000/ml
- Bacteria Count ([2]; Benzoic Acid Concentration 500 ppm, After 29 days): 43,000/ml
- Bacteria Count ([2]; Benzoic Acid Concentration 500 ppm, Initial): 2,900/ml
- yeast growth (in words) ([2]; benzoic acid concentration of 500 ppm, after 29 days of contact time): high yeast growth

SMILES: C/C=C/C=C/C(=O)[O-].[K+] [Potassium Sorbate]
- Bacteria Count [3]: 1.6×10^10
- Solubility, Water [4]: 138 g/100 g

SMILES: C/C=C/C=C/C(=O)O [Sorbic Acid]
- Anion, dis. ([1]; pH Value 3): 1.7%
- Anion, dis. ([1]; pH Value 4.0): 14.7%
- Anion, dis. ([1]; pH Value 5.0): 63%
